Data as given in patent US20230338337A1, “BIOMARKERS FOR CANCER THERAPY USING MDM2 ANTAGONISTS” (OTSUKA PHARMACEUTICAL CO., LTD., priority 2019, published 2023).
Like-named read-outs stand apart in the source and are kept apart here.

Columns and labels:
[1] = biological target: MDM2-p53 interaction (in vitro translated MDM2) (Homo sapiens (Human), UniProt Q00987); assay: MDM2-p53 interaction 96-well plate binding assay (ELISA); details: for MDM2 % inhibition at 0.0010: at 0.0010 μM
[2] = tested on: SJSA-1 (p53 wild-type, MDM2 amplified osteosarcoma); assay: Protocol A: SRB growth inhibition assay; details: read-out: SJSA-1 IC50 (μM) (Protocol A)
[3] = tested on: SJSA-1; assay: Protocol B: CellTiter-Glo cell viability assay; details: read-out: SJSA1 IC50 (μM) (Protocol B); Protocol B

MDM2-p53 interaction (in vitro translated MDM2), sequence (Q00987 whole entry): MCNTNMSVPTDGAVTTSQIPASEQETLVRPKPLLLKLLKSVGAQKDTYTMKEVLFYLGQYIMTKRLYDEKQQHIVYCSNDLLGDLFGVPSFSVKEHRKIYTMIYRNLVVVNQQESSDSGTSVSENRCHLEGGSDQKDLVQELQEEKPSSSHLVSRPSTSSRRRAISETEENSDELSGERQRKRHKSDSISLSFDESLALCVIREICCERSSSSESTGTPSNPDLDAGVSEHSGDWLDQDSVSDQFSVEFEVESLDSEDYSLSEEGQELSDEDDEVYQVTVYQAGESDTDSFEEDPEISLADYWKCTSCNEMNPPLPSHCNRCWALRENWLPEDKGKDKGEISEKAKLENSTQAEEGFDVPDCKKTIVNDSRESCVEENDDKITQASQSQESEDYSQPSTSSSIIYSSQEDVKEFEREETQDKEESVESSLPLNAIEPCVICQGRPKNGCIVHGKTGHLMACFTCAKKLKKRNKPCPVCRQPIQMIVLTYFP

| Substance | IC50 [2] [µM] | MDM2 % inhibition at 0.0010 [1] [%@0.0010] | IC50 [3] [µM] | other results |
| --- | --- | --- | --- | --- |
| 2-{[(1R)-1-(4-chlorophenyl)-7-fluoro-5-{1-hydroxy-1-[trans-4-hydroxycyclohexyl]propyl}-1-methoxy-3-oxo-2,3-dihydro-1H-isoindol-2-yl]methyl}pyrimidine-5-carbonitrile [Example 504] | 0.039 | 71 |  |  |
| 5-{[(1R)-1-(4-chlorophenyl)-7-fluoro-5-[1-hydroxy-1-(1-methyl-1H-imidazol-4-yl)propyl]-3-oxo-1-[(3S)-oxolan-3-yloxy]-2,3-dihydro-1H-isoindol-2-yl]methyl}pyridine-2-carbonitrile [Example 431] | 0.11 | 48 |  |  |
| (3R)-3-(4-chlorophenyl)-2-[(5-chloropyridin-2-yl)methyl]-4-fluoro-6-[1-hydroxy-1-(1-methylpiperidin-4-yl)ethyl]-3-{[1-(hydroxymethyl)cyclopropyl]methoxy}-2,3-dihydro-1H-isoindol-1-one [Example 555] |  | 55 | 0.079 |  |
| (3R)-3-(4-chlorophenyl)-2-[(5-chloropyrimidin-2-yl)methyl]-4-fluoro-3-[(3-fluorooxetan-3-yl)methoxy]-6-[2-hydroxy-1-(piperazin-1-yl)butan-2-yl]-2,3-dihydro-1H-isoindol-1-one [Example 538] |  |  | 2.2 | MDM2 % inhibition at 0.030 ([1]; at 0.030 μM): 44%@0.030 |
| (3R)-3-(4-chlorophenyl)-2-[(5-chloropyrimidin-2-yl)methyl]-4-fluoro-6-[1-(4-fluoropiperidin-4-yl)-1-hydroxypropyl]-3-[(2R)-2-hydroxypropoxy]-2,3-dihydro-1H-isoindol-1-one [Example 543] |  | 68 | 0.69 |  |
| (3R)-3-(4-chlorophenyl)-2-[(5-chloropyrimidin-2-yl)methyl]-4-fluoro-6-[1-(4-fluoropiperidin-4-yl)-1-hydroxypropyl]-3-[cis-3-hydroxycyclobutoxy]-2,3-dihydro-1H-isoindol-1-one [Example 542] |  |  | 3.1 | MDM2 % inhibition at 0.010 ([1]; at 0.010 μM): 57%@0.010 |
| (3R)-3-(4-chlorophenyl)-2-[(5-chloropyrimidin-2-yl)methyl]-4-fluoro-6-[1-hydroxy-1-(1-methyl-1H-imidazol-4-yl)propyl]-3-[(3S)-oxolan-3-yloxy]-2,3-dihydro-1H-isoindol-1-one [Example 474] |  |  | 1.3 | MDM2 % inhibition at 0.030 ([1]; at 0.030 μM): 38%@0.030 |
| (3R)-3-(4-chlorophenyl)-2-[(5-chloropyrimidin-2-yl)methyl]-4-fluoro-6-{1-hydroxy-1-[trans-4-hydroxycyclohexyl]propyl}-3-(2-hydroxyethoxy)-2,3-dihydro-1H-isoindol-1-one [Example 519] |  |  | 1.9 | MDM2 % inhibition at 0.030 ([1]; at 0.030 μM): 35%@0.030 |
| (3R)-6-[1-(1-acetylpiperidin-4-yl)-1-hydroxyethyl]-2-{[5-chloro-3-(hydroxymethyl)pyridin-2-yl]methyl}-3-(4-chlorophenyl)-4-fluoro-3-methoxy-2,3-dihydro-1H-isoindol-1-one [Example 424] |  |  | 0.69 | MDM2 % inhibition at 0.0030 ([1]; at 0.0030 μM): 45%@0.0030 |

Continued, in another order:

| IC50 [2] [µM] | MDM2 % inhibition at 0.0010 [1] [%@0.0010] | IC50 [3] [µM] | Substance | other results |
| --- | --- | --- | --- | --- |
| 0.2 |  |  | 1-({[(1R)-1-(4-chlorophenyl)-2-[(4-chlorophenyl)methyl]-5-(2-hydroxypropan-2-yl)-3-oxo-2,3-dihydro-1H-isoindol-1-yl]oxy}methyl)cyclopropane-1-carboxylic acid [Example 5] | IC50 ([1]; read-out: MDM2 IC50): 3.8 nM |
| 0.07 |  |  | 1-({[(1R)-5-[1-(1-acetylpiperidin-4-yl)-1-hydroxyethyl]-1-(4-chlorophenyl)-2-[(5-chloropyridin-2-yl)methyl]-7-fluoro-3-oxo-2,3-dihydro-1H-isoindol-1-yl]oxy}methyl)cyclopropane-1-carbonitrile [Example 301] | MDM2 % at concentration [1]: 75%@0.0010 |
| 0.021 | 45 |  | 2-{[(1R)-1-(4-chlorophenyl)-1-[(1-cyanocyclopropyl)methoxy]-7-fluoro-5-[1-(4-fluoro-1-methylpiperidin-4-yl)-1-hydroxypropyl]-3-oxo-2,3-dihydro-1H-isoindol-2-yl]methyl}pyrimidine-5-carbonitrile [Example 574] |  |
| 0.25 | 81 |  | 2-{[(1R)-1-(4-chlorophenyl)-7-fluoro-5-[(1S)-1-hydroxy-1-(1-methylpiperidin-4-yl)propyl]-3-oxo-1-[(3S)-oxolan-3-yloxy]-2,3-dihydro-1H-isoindol-2-yl]methyl}pyrimidine-5-carbonitrile [Example 557] |  |
| 0.64 |  |  | (2S)-3-{[(1R)-1-(4-Chlorophenyl)-2-[(5-chloropyridin-2-yl)methyl]-7-fluoro-5-(2-hydroxypropan-2-yl)-3-oxo-2,3-dihydro-1H-isoindol-1-yl]oxy}-2-methylpropanamide [Example 167] |  |
|  |  | 4.3 | (3R)-3-(4-chlorophenyl)-2-[(3,5-difluoropyridin-2-yl)methyl]-4-fluoro-6-[1-hydroxy-1-(1-methyl-1H-pyrazol-4-yl)ethyl]-3-[(1-hydroxycyclopropyl)methoxy]-2,3-dihydro-1H-isoindol-1-one [Example 351] | MDM2 % at concentration ([1]; at 0.10 μM): 25%@0.10 |
|  |  | 2 | (3R)-3-(4-chlorophenyl)-2-[(5-chloropyridin-2-yl)methyl]-4-fluoro-3-[(1-{[(2-hydroxyethyl)amino]methyl}cyclopropyl)methoxy]-6-(2-hydroxypropan-2-yl)-2,3-dihydro-1H-isoindol-1-one [Example 326] | MDM2 % at concentration ([1]; at 0.030 μM): 50%@0.030 |
|  |  | 2.6 | (3R)-3-(4-chlorophenyl)-2-[(5-chloropyridin-2-yl)methyl]-4-fluoro-6-[1-hydroxy-1-(4-methyl-1H-imidazol-2-yl)ethyl]-3-[(1-hydroxycyclopropyl)methoxy]-2,3-dihydro-1H-isoindol-1-one [Example 332] | MDM2 % at concentration ([1]; at 0.030 μM): 60%@0.030 |
|  | 41 | 0.092 | (3R)-3-(4-chlorophenyl)-2-[(5-chloropyrimidin-2-yl)methyl]-4-fluoro-3-[(3-fluorooxetan-3-yl)methoxy]-6-[2-hydroxy-1-(piperazin-1-yl)butan-2-yl]-2,3-dihydro-1H-isoindol-1-one [Example 539] |  |
|  |  | 1.8 | (3R)-3-(4-chlorophenyl)-2-[(5-chloropyrimidin-2-yl)methyl]-4-fluoro-6-[1-(4-fluoropiperidin-4-yl)-1-hydroxypropyl]-3-[(3S)-oxolan-3-yloxy]-2,3-dihydro-1H-isoindol-1-one [Example 540] | MDM2 % inhibition at 0.030 ([1]; at 0.030 μM): 33%@0.030 |
|  |  | 0.6 | (3R)-3-(4-chlorophenyl)-2-[(5-chloropyrimidin-2-yl)methyl]-4-fluoro-6-[1-hydroxy-1-(1-methyl-1H-imidazol-4-yl)propyl]-3-{[1-(hydroxymethyl)cyclopropyl]methoxy}-2,3-dihydro-1H-isoindol-1-one [Example 476] | MDM2 % inhibition at 0.030 ([1]; at 0.030 μM): 51%@0.030 |
|  |  | 1.7 | (3R)-3-(4-chlorophenyl)-4-fluoro-6-[1-hydroxy-1-(1-methyl-1H-pyrazol-4-yl)ethyl]-3-[(1-hydroxycyclopropyl)methoxy]-2-[(5-methoxypyridin-2-yl)methyl]-2,3-dihydro-1H-isoindol-1-one [Example 347] | MDM2 % at concentration ([1]; at 0.10 μM): 63%@0.10 |
